Assay results from US20070128217A1 (priority 2003, published 2007).

What was measured:
[1] = system: antibodies in sera from SARS patients (sera 1a, 1b, 2, 6, 37, 62, London, SARS-yellow, SARS-green); type: binding, human; design: Binding of serum 6 to linear peptides of protein X1 of SARS-CoV Urbani / Binding of serum 37 to linear peptides of protein X1 of SARS-CoV Urbani / Binding of serum 6 to looped/cyclic peptide (PEPSCAN-ELISA) / Binding of serum 37 to looped/cyclic peptide (PEPSCAN-ELISA) / Binding of serum 37 to looped/cyclic peptides of protein X1 of SARS-CoV Urbani / Binding of serum 6 to linear peptides of protein X2 / Binding of serum 37 to linear peptides of protein X2 / Binding of serum 37 to looped/cyclic peptides of protein X2 of SARS-CoV Urbani / Binding of serum 6 to linear peptides of protein M of SARS-CoV Urbani / Binding of serum 37 to linear peptides of protein M of SARS-CoV Urbani / Binding of serum 6 to looped/cyclic peptides of protein M of SARS-CoV Urbani / Binding of serum 37 to looped/cyclic peptides of protein M of SARS-CoV Urbani / Binding of serum 6 to linear peptides of protein X3 of SARS-CoV Urbani / Binding of serum 37 to linear peptides of protein X3 of SARS-CoV Urbani / Binding of serum 37 to looped/cyclic peptides of protein X3 of SARS-CoV Urbani / Binding of serum 6 to linear peptides of protein X4 of SARS-CoV Urbani / Binding of serum 37 to linear peptides of protein X4 of SARS-CoV Urbani / Binding of serum 37 to looped/cyclic peptides of protein X4 of SARS-CoV Urbani / Binding of serum 6 to linear peptides of protein X5 of SARS-CoV Urbani / Binding of serum 37 to linear peptides of protein X5 of SARS-CoV Urbani / Binding of serum 37 to looped/cyclic peptides of protein X5 of SARS-CoV Urbani / Binding of serum 6 to linear peptides of protein N of SARS-CoV Urbani / Binding of serum 37 to linear peptides of protein N of SARS-CoV Urbani / Binding of serum 6 to linear peptide (PEPSCAN-ELISA) / Binding of serum 1a to looped/cyclic peptides of protein N of SARS-CoV Urbani / Binding of serum 1b to looped/cyclic peptides of protein N of SARS-CoV Urbani / Binding of serum 2 to looped/cyclic peptides of protein N of SARS-CoV Urbani / Binding of serum 6 to looped/cyclic peptides of protein N of SARS-CoV Urbani / Binding of serum 37 to looped/cyclic peptides of protein N of SARS-CoV Urbani / Binding of serum 62 to looped/cyclic peptides of protein N of SARS-CoV Urbani / Binding of serum London to looped/cyclic peptides of protein N of SARS-CoV Urbani / Binding of serum SARS-green to looped/cyclic peptides of protein N of SARS-CoV Urbani: unit not given here
[2] = system: rabbit serum obtained by immunizing a rabbit with the SARS-CoV strain Frankfurt 1; type: binding; design: Binding of a rabbit serum to linear peptides / Binding of a rabbit serum to looped peptides / Rabbit serum linear peptides / Rabbit serum looped peptides / Binding of a rabbit serum to linear peptides of protein N of SARS-CoV Urbani (Rabbit serum linear peptides) / Binding of a rabbit serum to looped/cyclic peptides of protein N of SARS-CoV Urbani (Rabbit serum looped peptides): unit not given here

Sequence | Binding of serum 1a to looped/cyclic peptide (PEPSCAN-ELISA) [1] | Binding of serum 1b to looped/cyclic peptide (PEPSCAN-ELISA) [1] | Binding of serum 2 to looped/cyclic peptide (PEPSCAN-ELISA) [1] | Binding of serum 6 to looped/cyclic peptide (PEPSCAN-ELISA) [1] | Binding of serum 37 to looped/cyclic peptide (PEPSCAN-ELISA) [1] | Binding of serum 62 to looped/cyclic peptide (PEPSCAN-ELISA) [1] | Binding of serum London to looped/cyclic peptide (PEPSCAN-ELISA) [1] | Binding of serum SARS-green to looped/cyclic peptide (PEPSCAN-ELISA) [1] | Binding of serum SARS-yellow to looped/cyclic peptide (PEPSCAN-ELISA) [1] | Recognition of the peptide by the rabbit serum [2] | Binding of a rabbit serum to linear peptides [2] | Binding of a rabbit serum to looped peptides [2] | Rabbit serum linear peptides [2] | Rabbit serum looped peptides [2] | other results
ATKIIALNKRWQLAL | 0.6 | 0.4 | 0.5 | 0.5 | 0.6 | 0.7 | 0.3 | 0.3 | 0.6 | recognized | – | – | – | – | Binding of serum 1a to linear peptides of protein X1 of SARS-CoV Urbani [1]: 0.7; Binding of serum 1b to linear peptides of protein X1 of SARS-CoV Urbani [1]: 0.6; Binding of serum 2 to linear peptides of protein X1 of SARS-CoV Urbani [1]: 0.6; Binding of serum 6 to linear peptides of protein X1 of SARS-CoV Urbani [1]: 0.7; Binding of serum 37 to linear peptides of protein X1 of SARS-CoV Urbani [1]: 0.8; Binding of serum 62 to linear peptides of protein X1 of SARS-CoV Urbani [1]: 0.8; Binding of serum London to linear peptides of protein X1 of SARS-CoV Urbani [1]: 0.4; Binding of serum SARS-green to linear peptides of protein X1 of SARS-CoV Urbani [1]: 0.3; Binding of serum SARS-yellow to linear peptides of protein X1 of SARS-CoV Urbani [1]: 0.7
AVFQSATKIIALNKR | 0.4 | 0.4 | 0.6 | 0.7 | 0.6 | 0.6 | 0.9 | 0.2 | 0.4 | recognized | – | – | – | – | Binding of serum 1a to linear peptides of protein X1 of SARS-CoV Urbani [1]: 0.8; Binding of serum 1b to linear peptides of protein X1 of SARS-CoV Urbani [1]: 0.6; Binding of serum 2 to linear peptides of protein X1 of SARS-CoV Urbani [1]: 0.6; Binding of serum 6 to linear peptides of protein X1 of SARS-CoV Urbani [1]: 0.8; Binding of serum 37 to linear peptides of protein X1 of SARS-CoV Urbani [1]: 0.7; Binding of serum 62 to linear peptides of protein X1 of SARS-CoV Urbani [1]: 0.6; Binding of serum London to linear peptides of protein X1 of SARS-CoV Urbani [1]: 0.3; Binding of serum SARS-green to linear peptides of protein X1 of SARS-CoV Urbani [1]: 0.3; Binding of serum SARS-yellow to linear peptides of protein X1 of SARS-CoV Urbani [1]: 0.5
IALNKRWQLALYKGF | 0.5 | 0.4 | 0.5 | 0.4 | 0.5 | 0.7 | 0.3 | 0.4 | 0.6 | recognized | – | – | – | – | Binding of serum 1a to linear peptides of protein X1 of SARS-CoV Urbani [1]: 0.8; Binding of serum 1b to linear peptides of protein X1 of SARS-CoV Urbani [1]: 0.7; Binding of serum 2 to linear peptides of protein X1 of SARS-CoV Urbani [1]: 0.6; Binding of serum 6 to linear peptides of protein X1 of SARS-CoV Urbani [1]: 0.9; Binding of serum 37 to linear peptides of protein X1 of SARS-CoV Urbani [1]: 0.7; Binding of serum 62 to linear peptides of protein X1 of SARS-CoV Urbani [1]: 0.7; Binding of serum London to linear peptides of protein X1 of SARS-CoV Urbani [1]: 0.3; Binding of serum SARS-green to linear peptides of protein X1 of SARS-CoV Urbani [1]: 0.4; Binding of serum SARS-yellow to linear peptides of protein X1 of SARS-CoV Urbani [1]: 0.5
FQSATKIIALNKRWQ | 0.5 | 0.3 | 0.4 | 0.5 | 0.5 | 0.5 | 0.2 | 0.3 | 0.2 | recognized | – | – | – | – | Binding of serum 1a to linear peptides of protein X1 of SARS-CoV Urbani [1]: 0.8; Binding of serum 1b to linear peptides of protein X1 of SARS-CoV Urbani [1]: 0.6; Binding of serum 2 to linear peptides of protein X1 of SARS-CoV Urbani [1]: 0.6; Binding of serum 6 to linear peptides of protein X1 of SARS-CoV Urbani [1]: 0.6; Binding of serum 37 to linear peptides of protein X1 of SARS-CoV Urbani [1]: 0.7; Binding of serum 62 to linear peptides of protein X1 of SARS-CoV Urbani [1]: 0.7; Binding of serum London to linear peptides of protein X1 of SARS-CoV Urbani [1]: 0.3; Binding of serum SARS-green to linear peptides of protein X1 of SARS-CoV Urbani [1]: 0.4; Binding of serum SARS-yellow to linear peptides of protein X1 of SARS-CoV Urbani [1]: 0.4
KIIALNKRWQLALYK | 0.7 | 0.5 | 0.7 | 0.8 | 0.8 | 0.7 | 0.3 | 0.3 | 0.5 | recognized | – | – | – | – | Binding of serum 1a to linear peptides of protein X1 of SARS-CoV Urbani [1]: 0.8; Binding of serum 1b to linear peptides of protein X1 of SARS-CoV Urbani [1]: 0.7; Binding of serum 2 to linear peptides of protein X1 of SARS-CoV Urbani [1]: 0.7; Binding of serum 6 to linear peptides of protein X1 of SARS-CoV Urbani [1]: 1.0; Binding of serum 37 to linear peptides of protein X1 of SARS-CoV Urbani [1]: 0.8; Binding of serum 62 to linear peptides of protein X1 of SARS-CoV Urbani [1]: 0.8; Binding of serum London to linear peptides of protein X1 of SARS-CoV Urbani [1]: 0.4; Binding of serum SARS-green to linear peptides of protein X1 of SARS-CoV Urbani [1]: 0.4; Binding of serum SARS-yellow to linear peptides of protein X1 of SARS-CoV Urbani [1]: 0.5
MPTTLFAGTHITMTT | – | – | – | – | – | – | – | – | – | – | 0.7 | 0.3 | – | – | –
ASPASTVHATATIPL | – | – | – | – | – | – | – | – | – | – | 1.4 | 0.5 | – | – | –
PASTVHATATIPLQA | – | – | – | – | – | – | – | – | – | – | 0.9 | 0.5 | – | – | –
NASPASTVHATATIP | – | – | – | – | – | – | – | – | – | – | 0.6 | 0.3 | – | – | –
IMRCWLCWKGKSKNP | – | – | – | – | – | – | – | – | – | – | 0.1 | 0.3 | – | – | –
YEGNSPFHPLADNKF | – | – | – | – | – | – | – | – | – | – | – | – | 0.6 | 0.5 | –
MVQTCTPNVTINCQD | – | – | – | – | – | – | – | – | – | – | – | – | 0.5 | 0.2 | –
TITVEELKQLLEQWN | – | – | – | – | – | – | – | – | – | recognized | – | – | – | – | –
RCWLCWKCKSKNPLL | 0.7 | 0.5 | 0.7 | 0.8 | 0.8 | 0.7 | 0.4 | 0.4 | 0.7 | – | 0.1 | 0.7 | – | – | Recognition of the peptide by sera of SARS-CoV infected individuals, and form (linear, looped/cyclic) in which it is recognized [1]: recognized in linear form
CPSGTYEGNSPFNPL | – | – | – | – | – | – | – | – | – | – | – | – | 0.5 | 0.7 | –
CWYLHEGHQTAAFRD | – | – | – | – | – | – | – | – | – | – | – | – | 0.3 | 0.4 | –
GHPLGRCDTKDLPKE | – | – | – | – | – | – | – | – | – | – | – | – | 0.3 | 0.0 | –
GHLRMAGHPLGRCDI | – | – | – | – | – | – | – | – | – | – | – | – | 0.4 | 0.7 | –
